Laboratory results reported in paper PMC10574094, “Discovery of a SHP2 Degrader with In Vivo Anti-Tumor Activity” (Molecules, 2023).
Residues, ends and D or L forms follow the SMILES beside them. *: point of attachment. Cbz = O=C(OCc1ccccc1)*

Assays:
SHP2 = target: T1, SHP2 (Homo sapiens, UniProt Q06124); experiment: SHP2 degradation by Western blotting in HEK293 cells; assay type: cell-based; parameters: endogenous in cells; host or cells: HEK293; conditions: for effect on P9-induced SHP2 degradation: HEK293, 16 h, 250 nM P9 in combination with 1 µM 3, 10 µM MG132, 1 µM MLN4924, 40 µM VHL-2 or 40 µM Lenalidomide; for SHP2 degradation (in words) / Degradation at 1 μM / Degradation at 10 μM: HEK293 cells; for SHP2 degradation (in words): 1 and 10 µM; for Degradation at 1 μM / Degradation at 10 μM: 16 h treatment
T1 sequence (Q06124 1-593): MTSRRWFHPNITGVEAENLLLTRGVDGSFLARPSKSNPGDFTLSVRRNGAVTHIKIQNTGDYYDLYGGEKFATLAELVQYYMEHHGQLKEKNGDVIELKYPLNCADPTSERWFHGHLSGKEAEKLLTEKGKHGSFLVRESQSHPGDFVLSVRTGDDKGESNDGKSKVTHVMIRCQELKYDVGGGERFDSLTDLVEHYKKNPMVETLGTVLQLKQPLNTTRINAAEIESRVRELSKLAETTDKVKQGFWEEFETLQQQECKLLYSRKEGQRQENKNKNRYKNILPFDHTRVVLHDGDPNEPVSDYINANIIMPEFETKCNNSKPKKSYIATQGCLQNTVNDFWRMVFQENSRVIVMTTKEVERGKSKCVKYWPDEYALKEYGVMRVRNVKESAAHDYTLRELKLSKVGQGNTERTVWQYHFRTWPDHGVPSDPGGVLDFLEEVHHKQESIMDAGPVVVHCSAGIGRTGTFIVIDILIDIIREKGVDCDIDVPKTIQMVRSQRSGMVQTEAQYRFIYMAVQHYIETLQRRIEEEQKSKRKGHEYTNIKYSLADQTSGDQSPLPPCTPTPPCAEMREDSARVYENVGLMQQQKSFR
Protocol: HEK293, SKBR3, U2OS, MCF7 and A549 cells were grown in DMEM supplemented with 10% FBS, penicillin (50 units/mL), and streptomycin (50 μg/mL) in a 37 °C incubator containing 5% CO2. […] For western-blot analysis, protein samples were separated by SDS-PAGE, transferred to nitrocellulose membranes, and incubated overnight at 4 °C with corresponding primary antibodies diluted in 5% BSA in phosphate-buffered saline Tween (PBST). SuperSignal™ West Pico PLUS (PI34580; Thermo Scientific) was used to visualize the antibodies in the bioanalytical imaging system (Azure Biosystems c500). […] Anti-PTP1B (ab244207) antibody was purchased from Abcam. For colony formation assay, a total of approximately 200–500 cells were seeded to each well in a 12-well plate.
Supplemental Figures, Schemes, and Tables:
Figure S1. Western blots of degradation assay for PROTAC screening. (A) Degradation assay of
compo un ds i n Table 1 at 1 μM fo r 16 hours in H EK29 3 cells. (B) Degradation assay of compounds in Table
1 at 10 μM for 16 hours in HEK293 cells. (C) Degradation assay of compounds in Table 2 at 1 μM for 16

full-length SHP2 (1-528) = target: T2, full-length SHP2 (1-528) (Homo sapiens, UniProt Q06124); experiment: SHP2 allosteric inhibition assay (DiFMUP substrate); assay type: biochemical; conditions: full length SHP2, enzymatic assay
T2 construct: The SHP2 protein (Aa 1–528) was cloned into a pET-21a(+) vector; His; made in house; host or cells: E. coli BL21(DE3)
T2 sequence (Q06124 1-528): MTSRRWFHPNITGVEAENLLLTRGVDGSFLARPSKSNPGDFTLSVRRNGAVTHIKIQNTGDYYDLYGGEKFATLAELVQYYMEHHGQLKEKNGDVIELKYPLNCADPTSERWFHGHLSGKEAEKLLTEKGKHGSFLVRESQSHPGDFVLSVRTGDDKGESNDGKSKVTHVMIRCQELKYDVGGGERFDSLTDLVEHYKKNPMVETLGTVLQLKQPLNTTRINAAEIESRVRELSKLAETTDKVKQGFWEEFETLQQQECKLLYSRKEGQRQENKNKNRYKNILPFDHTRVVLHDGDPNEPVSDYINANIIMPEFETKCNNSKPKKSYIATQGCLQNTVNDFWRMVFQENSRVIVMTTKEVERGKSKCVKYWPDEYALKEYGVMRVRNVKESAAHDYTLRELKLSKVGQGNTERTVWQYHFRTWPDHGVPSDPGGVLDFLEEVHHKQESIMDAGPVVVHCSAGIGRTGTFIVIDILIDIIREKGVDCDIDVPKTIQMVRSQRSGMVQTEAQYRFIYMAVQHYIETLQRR
Protocol: The SHP2 protein (Aa 1–528) was cloned into a pET-21a(+) vector. Bacterial BL21(DE3) (Novagen) was used as an expression host, and the induction of protein expression was carried out in LB media with 1 mM IPTG at 18 °C overnight. Cell pellets were stored at −80 °C for subsequent protein purification. Protein purification was conducted at 4 °C. Frozen cell pellets were lysed by sonication in 40 mL cold lysis buffer (50 mM Tris-HCl, pH 8.0, 150 mM NaCl, 5 mM imidazole, and 1 mM PMSF) per liter cell pellet. Cell lysates were clarified by centrifuging for 15 min at 6000 rpm. The supernatant was incubated with HisPur Ni-NTA resin (Thermo Scientific, Waltham, MA, USA) for 2 h, and then packed onto a column and washed with 50 resin volume of buffer A (50 mM Tris-HCl, pH 8.0, 500 mM NaCl, 5 mM imidazole). The HIS-tagged proteins were eluted with Buffer B (50 mM Tris-HCl, pH = 8.0, 500 mM NaCl, 300 mM imidazole,). Pooled HIS-protein-containing fractions were concentrated, loaded onto a HiLoad 26/600 Superdex 75 column (GE Healthcare Biosciences, Piscataway, NJ, USA), and eluted with storage buffer (50 mM Tris-HCl, pH 8.0, 150 mM NaCl, 1 mM DTT, 10% glycerol). Proteins used for inhibition assays were purified using Ni-NTA resin (Qiagen, Hilden, Germany) followed by size exclusion column chromatography (ÄKTA pure, Cytiva, Marlborough, MA, USA) and the purity was determined to be >95% by SDS-PAGE and Coomassie staining. The protein was aliquoted and stored at −80 °C.
The catalytic activity of SHP2 (1-528) was assayed with 6,8-Difluoro-4-Methylumbelliferyl Phosphate (DiFMUP, Invitrogen, cat# D6567) as a substrate in 3,3-Dimethylglutaric acid (DMG) buffer (50 mM DMG, pH 7.0, 1 mM EDTA, 18 mM NaCl, 0.01% Triton X-100) at 25 °C. To determine the IC50 values, the assays were performed in 96-well plates (Corning Costar 3915). Series diluted compounds were incubated with 0.5 nM of SHP2 and 0.5 μM of peptide IRS1_pY1172(dPEG8)pY1222 (sequence H2N-LN(pY)IDLDLV(dPEG8)LST(pY)ASINFQK-amide). After 30 min incubation at room temperature, the substrate DiFMUP was added to the reaction (200 μM final concentration, total reaction volume is […]) and incubated at 25 °C for 10 min. The reaction was then quenched by adding 40 μL of 160 μM bpV(Phen) (Sigma–Aldrich, cat# SML0889) solution. The fluorescence signal was monitored with a CLARIOstar Plus Microplate Spectrophotometer (BMG Labtech) using excitation and emission wavelengths of 340 and 450 nm, respectively. The inhibitordose-response curves were analyzed using normalized IC50 regression curve fitting with control-based normalization. Data were fitted using Prism GraphPad 9.2.0.

| Structure (SMILES) | Degradation at 1 μM (SHP2) [%] | Degradation at 10 μM (SHP2) [%] | IC50 (full-length SHP2 (1-528)) [nM] | effect on P9-induced SHP2 degradation (SHP2) | SHP2 degradation (in words) (SHP2) |
| --- | --- | --- | --- | --- | --- |
| CC(C)C[C@@H](C=O)NC(=O)[C@H](CC(C)C)NC(=O)[C@H](CC(C)C)NC(=O)OCc1ccccc1 [MG-132, reference compound] (Cbz-Leu-Leu-Leu-aldehyde) | – | – | – | markedly reduced the extent of SHP2 degradation | – |
| NS(=O)(=O)OC[C@@H]1C[C@@H](n2ccc3c(N[C@H]4CCc5ccccc54)ncnc32)C[C@@H]1O [MLN-4924, reference compound] | – | – | – | markedly reduced the extent of SHP2 degradation | – |
| Cc1ncsc1-c1ccc([C@H](C)NC(=O)[C@@H]2C[C@@H](O)CN2C(=O)[C@@H](NC(=O)CCCCCCCCN2CCN(C(=O)CCCCCC3(CN)CCN(c4cnc(Sc5cccc(Cl)c5Cl)c(N)n4)CC3)CC2)C(C)(C)C)cc1 [P8, (2S,4R)-1-((S)-2-(9-(4-(6-(1-(6-amino-5-((2,3-dichlorophenyl)thio)pyrazin-2-yl)-4-(aminomethyl)piperidin-4-yl)hexanoyl)piperazin-1-yl)nonanamido)-3,3-dimethylbutanoyl)-4-hydroxy-N-((S)-1-(4-(4-methylthiazol-5-yl)phenyl)ethyl)pyrrolidine-2-carboxamide] | – | – | 104 ± 9.3 | – | – |
| Cc1ncsc1-c1ccc([C@H](C)NC(=O)[C@@H]2C[C@@H](O)CN2C(=O)[C@@H](NC(=O)CCCCCCCCCCN2CCN(C(=O)CCCCCC3(CN)CCN(c4cnc(Sc5cccc(Cl)c5Cl)c(N)n4)CC3)CC2)C(C)(C)C)cc1 [P10, (2S,4R)-1-((S)-2-(11-(4-(6-(1-(6-amino-5-((2,3-dichlorophenyl)thio)pyrazin-2-yl)-4-(aminomethyl)piperidin-4-yl)hexanoyl)piperazin-1-yl)undecanamido)-3,3-dimethylbutanoyl)-4-hydroxy-N-((S)-1-(4-(4-methylthiazol-5-yl)phenyl)ethyl)pyrrolidine-2-carboxamide] | – | – | 111 ± 8.2 | – | – |
| NCC1(CCCCCC(=O)O)CCN(c2cnc(Sc3cccc(Cl)c3Cl)c(N)n2)CC1 [compound 4] | – | – | 90 | – | – |
| Nc1cccc2c1CN(C1CCC(=O)NC1=O)C2=O (stereo not shown) [lenalidomide, reference compound] | – | – | – | did not affect the SHP2 degradation induced by P9 | – |

Now from value to compound, other results behind:

| Degradation at 1 μM (SHP2) [%] | Degradation at 10 μM (SHP2) [%] | IC50 (full-length SHP2 (1-528)) [nM] | Structure (SMILES) | effect on P9-induced SHP2 degradation (SHP2) | SHP2 degradation (in words) (SHP2) |
| --- | --- | --- | --- | --- | --- |
| <10 | <10 | 158 ± 26.5 | Cc1ncsc1-c1ccc([C@H](C)NC(=O)[C@@H]2C[C@@H](O)CN2C(=O)[C@@H](NC(=O)CCOCCOCCOCCNC(=O)CCCCCC2(CN)CCN(c3cnc(Sc4cccc(Cl)c4Cl)c(N)n3)CC2)C(C)(C)C)cc1 [P3, (2S,4R)-1-((S)-22-(1-(6-amino-5-((2,3-dichlorophenyl)thio)pyrazin-2-yl)-4-(aminomethyl)piperidin-4-yl)-2-(tert-butyl)-4,17-dioxo-7,10,13-trioxa-3,16-diazadocosanoyl)-4-hydroxy-N-((S)-1-(4-(4-methylthiazol-5-yl)phenyl)ethyl)pyrrolidine-2-carboxamide] | – | did not induce significant degradation of SHP2 |
| <10 | <10 | 156 ± 15.8 | Cc1ncsc1-c1ccc([C@H](C)NC(=O)[C@@H]2C[C@@H](O)CN2C(=O)[C@@H](NC(=O)CCOCCOCCOCCOCCNC(=O)CCCCCC2(CN)CCN(c3cnc(Sc4cccc(Cl)c4Cl)c(N)n3)CC2)C(C)(C)C)cc1 [P4, (2S,4R)-1-((S)-25-(1-(6-amino-5-((2,3-dichlorophenyl)thio)pyrazin-2-yl)-4-(aminomethyl)piperidin-4-yl)-2-(tert-butyl)-4,20-dioxo-7,10,13,16-tetraoxa-3,19-diazapentacosanoyl)-4-hydroxy-N-((S)-1-(4-(4-methylthiazol-5-yl)phenyl)ethyl)pyrrolidine-2-carboxamide] | – | did not induce significant degradation of SHP2 |
| <10 | <10 | 166 ± 11.9 | Cc1ncsc1-c1ccc([C@H](C)NC(=O)[C@@H]2C[C@@H](O)CN2C(=O)[C@@H](NC(=O)CCOCCOCCOCCOCCOCCNC(=O)CCCCCC2(CN)CCN(c3cnc(Sc4cccc(Cl)c4Cl)c(N)n3)CC2)C(C)(C)C)cc1 [P5, (2S,4R)-1-((S)-28-(1-(6-amino-5-((2,3-dichlorophenyl)thio)pyrazin-2-yl)-4-(aminomethyl)piperidin-4-yl)-2-(tert-butyl)-4,23-dioxo-7,10,13,16,19-pentaoxa-3,22-diazaoctacosanoyl)-4-hydroxy-N-((S)-1-(4-(4-methylthiazol-5-yl)phenyl)ethyl)pyrrolidine-2-carboxamide] | – | did not induce significant degradation of SHP2 |
| – | – | 119 ± 25.4 | Cc1ncsc1-c1ccc([C@H](C)NC(=O)[C@@H]2C[C@@H](O)CN2C(=O)[C@@H](NC(=O)CCCCCCCN2CCN(C(=O)CCCCCC3(CN)CCN(c4cnc(Sc5cccc(Cl)c5Cl)c(N)n4)CC3)CC2)C(C)(C)C)cc1 [P7, (2S,4R)-1-((S)-2-(8-(4-(6-(1-(6-amino-5-((2,3-dichlorophenyl)thio)pyrazin-2-yl)-4-(aminomethyl)piperidin-4-yl)hexanoyl)piperazin-1-yl)octanamido)-3,3-dimethylbutanoyl)-4-hydroxy-N-((S)-1-(4-(4-methylthiazol-5-yl)phenyl)ethyl)pyrrolidine-2-carboxamide] | – | – |
